Our source for the IC50 values is US20110160196A1, “FACTOR XA INHIBITORS” (Millennium Pharmaceuticals, Inc., priority 2007, published 2011).

T1 sequence (P00742 235-488 limits assumed): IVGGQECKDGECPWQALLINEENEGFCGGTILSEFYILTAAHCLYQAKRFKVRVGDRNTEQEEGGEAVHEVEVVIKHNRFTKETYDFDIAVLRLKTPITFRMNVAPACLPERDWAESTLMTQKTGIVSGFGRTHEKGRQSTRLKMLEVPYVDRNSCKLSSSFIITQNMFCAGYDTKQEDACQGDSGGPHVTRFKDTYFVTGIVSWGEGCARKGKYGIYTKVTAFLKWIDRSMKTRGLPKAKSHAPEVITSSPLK
T1 sequence (P00742 41-179 partner limits assumed): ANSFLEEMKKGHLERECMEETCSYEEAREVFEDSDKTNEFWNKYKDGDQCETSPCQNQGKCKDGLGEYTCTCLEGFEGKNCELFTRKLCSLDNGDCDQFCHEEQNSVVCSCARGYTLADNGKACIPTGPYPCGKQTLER

The assay addresses T1, human plasma protein factor Xa (Homo sapiens, UniProt P00742).
T1 construct: The human plasma protein factor Xa was purchased; purchased Haematologic Technologies (Essex Junction, Vt.); host or cells: human plasma
As to the kind of experiment: Factor Xa IC50 determination (cleavage of paranitroanilide substrate S-2765). The assay is classed as biochemical. The settings on record: factor Xa 1 nM, S-2765 100 μM, Tris buffered saline pH 7.4, read at 405 nm. The source says:
This example illustrates methods for evaluating the compounds of the invention, along with results obtained for such assays. The in vitro and in vivo human Factor Xa activities of the inventive compounds can be determined by various procedures known in the art, such as a test for their ability to inhibit the activity of human plasma Factor Xa. […] The IC50 value is the concentration (in nM) of the compound required to provide 50% inhibition of human Factor Xa proteolytic activity.
An in vitro assay for detecting and measuring inhibition activity against Factor Xa is as follows:
The substrate S-2765 (Z-D-Arg-Gly-Arg-pNA.HCl) was obtained from Diapharma (West Chester, Ohio).
The human plasma protein factor Xa was purchased from Haematologic Technologies (Essex Junction, Vt.).
All assays, which are performed in 96-well microtiter plates, measure proteolytic activity of the enzyme (factor Xa) by following cleavage of a paranitroanilide peptide substrate. The assay buffer used for proteolytic assays was Tris buffered saline (20 mM Tris, 150 mM NaCl, 5 mM CaCl2, 0.1% Bovine serum albumin (BSA), 5% Dimethly Sulfoxide (DMSO) pH 7.4). In a 96-well microtiter plate, inhibitor was serially diluted to give a range of final concentrations from 0.01 nM to 10 μM. Duplicate sets of wells were assayed and control wells without inhibitor were included. Enzyme was added to each well, (factor Xa concentration=1 nM), the plate was shaken for 5 seconds and then incubated for 5 minutes at room temperature. S-2765 was added (100 μM final) and the plate was shaken for 5 seconds (final volume in each well was 200 μl). The degree of substrate hydrolysis was measured at 405 nm on a Thermomax plate reader (Molecular Devices, Sunnyvale, Calif.) for 2 minutes. The initial velocities of substrate cleavage (mOD/min), for each range of inhibitor concentrations, were fitted to a four parameter equation using Softmax data analysis software. The parameter C, derived from the resulting curve-fit, corresponded to the concentration for half maximal inhibition (IC50).
In turn, `O=C(NCc1cn(-c2ccc(-n3ccccc3=O)cc2N2CCC[C@@H](O)C2)nn1)c1ccc(Cl)s1` [Compound 22, 5-Chloro-N-((1-(2-((R)-3-hydroxypiperidin-1-yl)-4-(2-oxopyridin-1(2H)-yl)phenyl)-1H-1,2,3-triazol-4-yl)methyl)thiophene-2-carboxamide] showed an IC50 of at most 100 nM.

On to `O=C(NCc1cn(-c2ccc(-n3ccccc3=O)cc2CN2CCSCC2)nn1)c1ccc(Cl)s1` [Compound 162, 5-Chloro-N-((1-(4-(2-oxopyridin-1(2H)-yl)-2-(thiomorpholinomethyl)phenyl)-1H-1,2,3-triazol-4-yl)methyl)thiophene-2-carboxamide], for which the concentration for half-maximal inhibition (IC50) is at most 100 nM.

For `CN(C)CCOc1cc(-n2ccccc2=O)ccc1-n1cc(CNC(=O)c2ccc(Cl)s2)nn1` [Compound 85], the IC50 is at most 100 nM.

In the case of `NC(=O)NC1CCN(c2cc(-n3ccccc3=O)ccc2-n2cc(CNC(=O)c3ccc(Cl)s3)nn2)CC1` [Compound 20, 1-(1-(2-(4-((2-Chlorothiophene-5-carboxamido)methyl)-1H-1,2,3-triazol-1-yl)-5-(2-oxopyridin-l(2H)-yl)phenyl)piperidin-4-yl)urea], the half-inhibitory concentration (IC50) was at most 100 nM.

With `O=C(NCc1cn(-c2ccc(-n3ccccc3=O)cc2N2CCCCC2)nn1)c1ccc(Cl)s1` [Compound 4, 5-Chloro-N-((1-(4-(2-oxopyridin-1(2H)-yl)-2-(piperidin-1-yl)phenyl)-1H-1,2,3-triazol-4-yl)methyl)thiophene-2-carboxamide], the IC50 was at most 100 nM.

In turn, `O=C(NCc1cn(-c2ccc(-n3ccccc3=O)cc2N2CCS(=O)(=O)CC2)nn1)c1ccc(Cl)s1` [Compound 12, 5-Chloro-N-((1-(4-(2-oxopyridin-1(2H)-yl)-2-((1,1-dioxo-)thiomorpholino)phenyl)-1H-1,2,3-triazol-4-yl)methyl)thiophene-2-carboxamide] had an IC50 of at most 100 nM.

`O=C(NCc1cn(-c2ccc(-n3ccccc3=O)cc2OCc2ncc[nH]2)nn1)c1ccc(Cl)s1` [Compound 177, N-((1-(2-((1H-Imidazol-2-yl)methoxy)-4-(2-oxopyridin-1(2H)-yl)phenyl)-1H-1,2,3-triazol-4-yl)methyl)-5-chlorothiophene-2-carboxamide] had an IC50 of at most 100 nM.

`O=C(NCc1cn(-c2ccc(-n3ccccc3=O)cc2N2CC[S+]([O-])CC2)nn1)c1ccc(Cl)s1` [Compound 11, 5-Chloro-N-((1-(4-(2-oxopyridin-1(2H)-yl)-2-((1-oxo-)thiomorpholino)phenyl)-1H-1,2,3-triazol-4-yl)methyl)thiophene-2-carboxamide] displayed an IC50 of at most 100 nM.

For `CN(C)CCNC(=O)c1cc(-n2ccccc2=O)ccc1-n1cc(CNC(=O)c2ccc(Cl)s2)nn1` [Compound 109, N-((1-(2-((2-(Dimethylamino)ethyl)carbamoyl)-4-(2-oxopyridin-1(2H)-yl)phenyl)-1H-1,2,3-triazol-4-yl)methyl)-5-chlorothiophene-2-carboxamide], the IC50 was at most 100 nM.

`O=C1CN(c2cc(N3CCCCC3=O)ccc2-n2cc(CNC(=O)c3ccc(Cl)s3)nn2)CCN1` [Compound 159, 5-Chloro-N-((1-(2-(3-oxopiperazin-1-yl)-4-(2-oxopiperidin-1-yl)phenyl)-1H-1,2,3-triazol-4-yl)methyl)thiophene-2-carboxamide] had an IC50 of at most 100 nM.

`O=C(NCc1cn(-c2ccc(-n3ccccc3=O)cc2-c2ccc(O)nc2)nn1)c1ccc(Cl)s1` [Compound 142, 5-Chloro-N-((1-(2-(6-hydroxypyridin-3-yl)-4-(2-oxopyridin-1(2H)-yl)phenyl)-1H-1,2,3-triazol-4-yl)methyl)thiophene-2-carboxamide] yielded an IC50 of at most 100 nM.

`O=C(NCc1cn(-c2ccc(-n3ccccc3=O)cc2CN2CCOCC2)nn1)c1ccc(Cl)s1` [Compound 160, 5-Chloro-N-((1-(2-(morpholinomethyl)-4-(2-oxopyridin-1(2H)-yl)phenyl)-1H-1,2,3-triazol-4-yl)methyl)thiophene-2-carboxamide] displayed an IC50 of at most 100 nM.

The molecule `CC(=O)N1CCN(c2cc(-n3ccccc3=O)ccc2-n2cc(CNC(=O)c3ccc(Cl)s3)nn2)CC1` [Compound 13, N-((1-(2-(4-Acetylpiperazin-1-yl)-4-(2-oxopyridin-1(2H)-yl)phenyl)-1H-1,2,3-triazol-4-yl)methyl)-5-chlorothiophene-2-carboxamide] displayed an IC50 of at most 100 nM.

In turn, `O=C(NCc1cn(-c2ccc(-n3ccccc3=O)cc2NCCO)nn1)c1ccc(Cl)s1` [Compound 26, 5-Chloro-N-((1-(2-(2-hydroxyethylamino)-4-(2-oxopyridin-1(2H)-yl)phenyl)-1H-1,2,3-triazol-4-yl)methyl)thiophene-2-carboxamide] displayed an IC50 of at most 100 nM.

The molecule `O=C(NCc1cn(-c2ccc(-n3ccccc3=O)cc2C(=O)NCc2nnn[nH]2)nn1)c1ccc(Cl)s1` [Compound 117, N-((1-(2-(((1H-Tetrazol-5-yl)methyl)carbamoyl)-4-(2-oxopyridin-1(2H)-yl)phenyl)-1H-1,2,3-triazol-4-yl)methyl)-5-chlorothiophene-2-carboxamide] returned an IC50 of at most 100 nM.

In turn, `O=C(NCc1cn(-c2ccc(-n3ccccc3=O)cc2C(=O)Nc2ccncc2)nn1)c1ccc(Cl)s1` [Compound 118, 5-Chloro-N-((1-(4-(2-oxopyridin-1(2H)-yl)-2-(pyridin-4-ylcarbamoyl)phenyl)-1H-1,2,3-triazol-4-yl)methyl)thiophene-2-carboxamide] showed an IC50 of 100 to 500 nM.

In turn, `O=C(NCc1cn(-c2ccc(N3CCCCC3=O)cc2N2CCSCC2)nn1)c1ccc(Cl)s1` [Compound 157, 5-Chloro-N-((1-(4-(2-oxopiperidin-1-yl)-2-thiomorpholinophenyl)-1H-1,2,3-triazol-4-yl)methyl)thiophene-2-carboxamide] registered an IC50 of at most 100 nM.

As to `CC(=O)NC1CCN(c2cc(-n3ccccc3=O)ccc2-n2cc(CNC(=O)c3ccc(Cl)s3)nn2)CC1` [Compound 18, N-((1-(2-(4-Acetamidopiperidin-1-yl)-4-(2-oxopyridin-1(2H)-yl)phenyl)-1H-1,2,3-triazol-4-yl)methyl)-5-chlorothiophene-2-carboxamide], the IC50 was at most 100 nM.

`O=C(NCc1cn(-c2ccc(-n3ccccc3=O)cc2OCc2nccn2Cc2ncc[nH]2)nn1)c1ccc(Cl)s1` [Compound 178, N-((1-(2-((1-((1H-imidazol-2-yl)methyl)-1H-imidazol-2-yl)methoxy)-4-(2-oxopyridin-1(2H)-yl)phenyl)-1H-1,2,3-triazol-4-yl)methyl)-5-chlorothiophene-2-carboxamide] came in with an IC50 of at most 100 nM.

`CNc1ccc(-c2cc(-n3ccccc3=O)ccc2-n2cc(CNC(=O)c3ccc(Cl)s3)nn2)cn1` [Compound 146, 5-Chloro-N-((1-(2-(6-(methylamino)pyridin-3-yl)-4-(2-oxopyridin-1(2H)-yl)phenyl)-1H-1,2,3-triazol-4-yl)methyl)thiophene-2-carboxamide] returned an IC50 of at most 100 nM.

For the molecule `O=C(NCc1cn(-c2ccc(-n3ccccc3=O)cc2OCCCN2CCCCC2)nn1)c1ccc(Cl)s1` [Compound 94, 5-Chloro-N-((1-(4-(2-oxopyridin-1(2H)-yl)-2-(3-(piperidin-1-yl)propoxy)phenyl)-1H-1,2,3-triazol-4-yl)methyl)thiophene-2-carboxamide], the IC50 is at most 100 nM.

As to `COc1cc(-n2ccccc2=O)ccc1-n1cc(CNC(=O)c2ccc(Cl)s2)nn1` [Compound 56, 5-Chloro-N-((1-(2-methoxy-4-(2-oxopyridin-1(2H)-yl)phenyl)-1H-1,2,3-triazol-4-yl)methyl)thiophene-2-carboxamide], the IC50 was at most 100 nM.

For the molecule `O=C(NCc1cn(-c2ccc(-n3ccccc3=O)cc2OCCCN2C(=O)c3ccccc3C2=O)nn1)c1ccc(Cl)s1` [Compound 67, 5-Chloro-N-((1-(2-(3-(1,3-dioxoisoindolin-2-yl)propoxy)-4-(2-oxopyridin-1(2H)-yl)phenyl)-1H-1,2,3-triazol-4-yl)methyl)thiophene-2-carboxamide], the IC50 was at most 100 nM.

On to `O=C(NCc1cn(-c2ccc(-n3ccccc3=O)cc2C(=O)NCCCO)nn1)c1ccc(Cl)s1` [Compound 105, N-((1-(2-((3-Hydroxypropyl)carbamoyl)-4-(2-oxopyridin-1(2H)-yl)phenyl)-1H-1,2,3-triazol-4-yl)methyl)-5-chlorothiophene-2-carboxamide], for which the IC50 was in the range of 100 to 500 nM.

`O=C(NCc1cn(-c2ccc(-n3ccccc3=O)cc2C(=O)O)nn1)c1ccc(Cl)s1` [Compound 100, 2-(4-((2-Chlorothiophcne-5-carboxamido)methyl)-1H-1,2,3-triazol-1-yl)-5-(2-oxopyridin-1(2H)-yl)benzoic acid] yielded an IC50 of 100 to 500 nM.

With `NC(=O)CCNC(=O)c1cc(-n2ccccc2=O)ccc1-n1cc(CNC(=O)c2ccc(Cl)s2)nn1` [Compound 147, N-((1-(2-(3-Amino-3-oxopropylcarbamoyl)-4-(2-oxopyridin-1(2H)-yl)phenyl)-1H-1,2,3-triazol-4-yl)methyl)-5-chlorothiophene-2-carboxamide], the IC50 fell in the range of 100 to 500 nM.

Usually IC50 stands for the midpoint of a concentration-inhibition curve. High values mean a need for much substance, low ones inhibition by little substance.
